Assay results: patent US4699903A, “Therapeutic use of tin diiododeuteroporphyrin” (The Rockefeller University, priority 1987, dated 1987)
Several values for one entry are separate records, joined by “and”; a condition that tells them apart may be missing. Equal values may be shown once. Read-outs that look alike come from different tables or passages of the source. Blank lines part the entries; values can stand above or below the compound they belong to.

Legend:
[1] = test system: heme oxygenase; test: Hepatic heme oxygenase activity in ALA-treated 7-day old suckling rats; format: in vivo, rat; conditions: ALA 50 μmmol/100 g at 0, 4 and 8 hours, sacrificed 16 hours after last ALA
Description: (§1) The next study established the ability of SnI2 DP to inhibit the ability of γ-aminolevulinic acid (ALA) to produce jaundice. This study of the efficacy of SnI2 DP to control hyperbilirubinemia thereby preventing the jaundice which develops in rats treated 7 days after birth with ALA is described by Drummond and Kappas, J. Clin. Invest. 74, 142-149 (1984). In the test, ALA (50 μmmol/100 g body weight) is administered to suckling 7 day old rats at 0, 4 and 8 hours, the animals sacrificed 16 hours after the last administration of ALA, and the serum biliribin measured.
(§2) Heme oxygenase was determined as described by Drummond and Kappas Proc. Natl. Acad. Sci. USA 78: 6466(1981).

[2] = test system: serum bilirubin; test: Serum bilirubin in ALA-treated hyperbilirubinemia, 7-day old suckling rats; format: in vivo, rat; conditions: ALA 50 μmmol/100 g at 0, 4 and 8 hours, sacrificed 16 hours after last ALA
Description: as §1

[3] = Singlet and triplet lifetimes; format: physicochemical
Description: (3) Singlet and triplet lifetimes: The singlet lifetime of SnI2 DP was determined to be 23 psec (this is at the lower levels of instrument detection). The singlet lifetimes of SnPP and SnMP are 500-600 p sec. The triplet lifetime of SnI2 DP was determined to be 0.2 millisec. The triplet lifetimes of SnPP and SnMP are 0.5 and 2.5 milliseconds respectively.

[4] = target: T1, heme oxygenase (Rattus norvegicus, UniProt P06762); test: Inhibition of heme oxygenase conversion of heme to bilirubin, rat spleen microsomes; format: biochemical; set-up: using rat spleen microsomes as the source of heme oxygenase; from tissue; host or cells: rat spleen microsomes; conditions: for inhibition constant compared with that of SnI2 DP: heme oxygenase; for Ki: rat spleen microsomes
T1 sequence (P06762 1-289): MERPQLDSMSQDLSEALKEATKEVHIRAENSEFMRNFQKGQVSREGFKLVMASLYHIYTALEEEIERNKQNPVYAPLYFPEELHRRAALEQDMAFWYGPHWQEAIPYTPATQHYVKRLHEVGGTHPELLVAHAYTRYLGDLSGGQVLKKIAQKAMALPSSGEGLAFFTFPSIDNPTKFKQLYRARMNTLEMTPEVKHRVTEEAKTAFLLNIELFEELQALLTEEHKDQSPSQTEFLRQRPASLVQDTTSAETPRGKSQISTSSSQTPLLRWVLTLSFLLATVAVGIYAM
Description: In an initial study using rat spleen microsomes as the source of heme oxygenase the ability of SnI2 DP to inhibit the activity of heme oxygenase to convert heme to bilirubin was determined.
Km=rate constant for heme oxygenase
KmAPP =rate constant for heme oxygenase in the presence of SnI2 DP

[5] = test system: heme oxygenase; test: Tissue heme oxygenase activity in newborn rats after SnI2 DP; format: in vivo, rat
Description: (§3) The in vivo ability of SnI2 DP to reduce serum bilirubin was established by studies in neonatal rats. The studies were conducted with four separate litters each containing ten neonates.
(§4) To prepare the solution for parenteral administration, SnI2 DP was taken up in a small volume of 0.2N sodium hydroxide, adjusted to pH 7.4 with 1N hydrochloric acid and made up to final volume with 0.9% sodium chloride. The solution as prepared and used contained a final SnI2 DP concentration of 10 μmol/kg body weight in each 0.1 ml injection volume. Control neonates received 0.1 ml of 0.9% sodium chloride at birth. One group of animals was sacrificed at 24 hours which is normally the peak of bilirubin for neonate rates. The total bilirubin in serum was estimated by the method of Roth, Clin. Chem. Acta, 17 487-492, 1967.
as §2

[6] = target: T1, heme oxygenase; test: Tissue heme oxygenase activity in bile duct cannulated adult rats; format: in vivo; set-up: from tissue; conditions: i.v. 10 μmol/kg b.w., n=5
Description: (§5) In the next in vivo test designed to measure the decrease in bilirubin production, SnI2 DP was administered intravenously to five adult rats, 12-15 weeks old at a dose of 10 μmol/kg body weight. Five control rats were administered saline. The bile duct was cannulated and the bile fluid analyzed for bilirubin content.
(§6) In addition, the activity of hepatic, renal and splenic heme oxygenase was decreased in bile duct cannulated animals administered SnI2 DP.
(§7) SnI2 DP administered i.v. at a dose of 10 μmol/kg b.w.
(§8) When compared to saline treated controls, n=5.

[7] = test system: heme oxygenase; test: Tissue heme oxygenase activity after simultaneous administration of heme; format: in vivo, rat; conditions: heme 6.1 μmol/kg b.w. simultaneously, n = 4
Description: (§9) Simultaneous intraveous (IV) administration of heme (6.1 μmol/kg b.w.) and SnI2 DP was examined in four pairs of bile duct cannulated adult male rats. The effect of simultaneous administration of heme and SnI2 DP on heme levels in bile and tissue heme oxygenase activity are shown in Tables V and VI respectively.
(§10) Each group was administered heme (6.1 μmol/kg b.w.) simultaneously with either SnI2 DP or saline.

[8] = test system: heme; test: Heme excretion in bile after simultaneous i.v. heme and SnI2 DP, bile duct cannulated adult male rats; format: in vivo, rat; conditions: heme 6.1 μmol/kg b.w. i.v. simultaneously
Description: as §9, §10

[9] = test system: serum bilirubin; test: Serum bilirubin levels in newborn rats; format: in vivo, rat
Description: as §3, §4

[10] = Fluorescence characteristics in pyridine; format: physicochemical
Description: (2) Fluorescence characteristics: A 1 μM solution of SnI2 DP in pyridine was excited at 400 nm and 2 emission peaks were detected at 578 nm and 635 nm. The measurable fluorescence represents less than 5% of that found for SnPP and SnMP.

[11] = test system: heme oxygenase; test: Tissue heme oxygenase activity in bile duct cannulated adult rats; format: in vivo, rat; conditions: i.v. 10 μmol/kg b.w., n=5
Description: as §5, §6, §7, §8

[12] = test system: biliary bilirubin; test: Drop in biliary bilirubin production in bile duct cannulated adult rats; format: in vivo, rat
Description: as §5

[13] = target: T1, heme oxygenase; test: Tissue heme oxygenase activity after simultaneous administration of heme; format: in vivo; set-up: from tissue; conditions: heme 6.1 μmol/kg b.w. simultaneously, n = 4
Description: as §9, §10

Compound: NCC(=O)CCC(=O)O [ALA, γ-aminolevulinic acid, reference compound]
Heme Oxygenase Liver [1]: 11.29 ± 0.33 nmol/mg p h
Serum Bilirubin [2]: 0.99 ± 0.06 mg/dL

singlet lifetime [3]: 500-600 psec
triplet lifetime [3]: 0.5 millisec
inhibition constant compared with that of SnI2 DP [4]: approximately the same
Compound: C=Cc1c2[n-]c(c1C)/C=c1\[n-]/c(c(C)c1C=C)=C\c1[n-]c(c(CCC(=O)O)c1C)C=c1[n-]/c(c(C)c1CCC(=O)O)=C\2.[Sn+4] [SnPP, tin protoporphyrin IX]

singlet lifetime [3]: 23 psec
triplet lifetime [3]: 0.2 millisec
Heme Oxygenase Spleen [6]: 5.37 ± 1.09 nmol/mg p h
fluorescence quenched by comparison with SnPP [10]: 95%
measurable fluorescence as % of that found for SnPP and SnMP ([10]; 1 μM solution in pyridine, excited at 400 nm): less than 5%
Ki ([4]; Lineweaver Burke plots, average of four determinations, read-out: inhibition constant Ki): 69 ± 7 nM
Ki ([4]; four separate determinations, read-out: Ki, separate determinations): 57 nM and 88 nM and 62 nM and 70 nM
Heme Oxygenase Spleen [13]: 8.15 ± 0.52 nmol/mg p h
Compound: tin diiododeuteroporphyrin [SnI2 DP]
kidney heme oxygenase activity ([5]; neonates, repeated test, 48 hours after birth): 0.88 nmol/mg p h
Heme Oxygenase Kidney ([5]; newborn rats, 10 μmol/kg at birth, 24 hours, kidney bulked): 1.13 nmol/mg p h
Heme Oxygenase Spleen ([5]; newborn rats, 10 μmol/kg at birth, 24 hours, spleen bulked): 3.74 nmol/mg p h
Heme Oxygenase Liver ([5]; newborn rats, 10 μmol/kg at birth, sacrificed at 24 hours): 8.07 ± 0.06 nmol/mg p h
Heme Oxygenase Liver [1]: 8.29 ± 0.48 nmol/mg p h
photosensitizing potential compared with SnPP and SnMP ([3]; inferred from fluorescence and triplet lifetime): less photosensitizing potential
Heme Oxygenase Kidney [7]: 1.04 ± 0.22 nmol/mg p h
Heme Oxygenase Liver [7]: 5.03 ± 0.72 nmol/mg p h
Heme excreted in bile (% of administered dose), Average ([8]; average of 4 experiments): 44.9 ± 4.79 % of administered dose
Heme excreted in bile (% of administered dose) ([8]; single experiments 1-4): 51.8 % of administered dose and 48.8 % of administered dose and 48.2 % of administered dose and 30.7 % of administered dose
Serum Bilirubin ([9]; newborn rats, 10 μmol/kg at birth, 24 hours): 0.34 ± 0.02 mg/dL
activity in preventing serum bilirubin increase, as % of that of SnMP ([9]; rat neonates): about 10%
activity in preventing serum bilirubin increase, compared with SnPP ([9]; rat neonates): roughly the same
Serum Bilirubin [2]: 0.54 ± 0.02 mg/dL
Heme Oxygenase Kidney [11]: 0.45 ± 0.03 nmol/mg p h
Heme Oxygenase Liver [11]: 2.06 ± 0.75 nmol/mg p h
Drop in biliary bilirubin production, % decrease ([12]; adult rats, 10 μmol/kg i.v., bile duct cannulated, single experiments 1-5): 60% and 35% and 47% and 44% and 48%
average difference between treated and control decline in biliary bilirubin ([12]; adult rats, 10 μmol/kg i.v., p<0.01): 21%
ability to lower heme oxygenase activity, serum and bile bilirubin levels, compared with SnMP ([12]; rats): not as effective as SnMP

singlet lifetime [3]: 500-600 psec
triplet lifetime [3]: 2.5 millisec
inhibition constant compared with that of SnI2 DP [4]: approximately the same
Compound: tin mesoporphyrin [SnMP]
